In brackets after ≈: the same amount, converted by molar mass.
What was measured:
[1] = cited from earlier work
[2] = log POct/W; cited from earlier work
[3] = cited from earlier work; remark: listed apart in the source
[4] = Colloidal dispersion of SNEDDSs in FaSSGF pH 1.6 (USP II apparatus); format: physicochemical; settings: FaSSGF pH 1.6, 37 °C, during the experiment (60 min), all four SNEDDSs
Procedure: (§1) The concentration of cinnarizine was determined using a HPLC method. A HPLC system (Hitachi, Merck, Darmstadt, Germany) equipped with a D-7000 interface, an L-7200 autosampler, a L-7100 pump, a L-7300 column oven (35 °C), and a L-7400 UV detector or a L-7480 fluorescence detector. Data was processed by using HPLC System Manager Version 4.0 from Merck (Darmstadt, Germany). Chromatographic separation was obtained using a Luna C18 150 × 4.6 mm, 5 µm, column and a C18 guard column (Phenomenex, Torrance, CA, USA). The mobile phase consisted of 50% (v/v) acetonitrile and 50% (v/v) 20 mM ammonium dihydrogen phosphate monobasic buffer, pH 4.5. The temperature of the column was maintained at 35 °C and the flow rate and injection volume were 1 mL/min and 25 µL, respectively. The UV detection was carried out at 253 nm and quantification was performed from peak areas using a six point linear standard curve ranging from 0.25–4 µg/mL.
Colloidal dispersion studies were performed in 250 mL fasted-state, simulated gastric fluid (FaSSGF) at pH 1.6. […] A quantity of 1 g of each SNEDDS containing 25 mg cinnarizine was weighed on a watch glass, and the glass with formulation was gently slid down the vessel wall to the bottom of the dissolution vessel and thereby introduced into the dispersion medium. […]

[5] = Solubility of cinnarizine in SNEDDSs, excipients and buffer (excess drug, end-over-end rotation, HPLC); format: physicochemical
Procedure: An excess of cinnarizine was added to the SNEDDSs, selected excipients (sesame oil and oleic acid) and 100 mM TRIS maleate buffer, pH 6.5. The resulting suspensions were placed in an end-over-end rotating device protected from light at 25 °C for the SNEDDSs and at 37 °C for the excipients and buffer; the temperatures were selected for storage purpose and for its physiological relevance, respectively. Samples were withdrawn at specified time points, i.e., 28, 50, and 72 h for the SNEDDSs, 22 h and 48 h for the excipients, and at 51 h and 75 h for the buffer. Samples were centrifuged at 15,000 rpm for 45 min (Biofuge 15, Hereaus-Sepatech, Oterode, Germany). Between two and three drops of supernatant were weighed in a 10 mL volumetric flask and diluted with ethanol. This solution was further diluted with mobile phase to an appropriate concentration. Samples from the buffer were diluted with mobile phase. Quantification of cinnarizine was performed as described in the analytical section. The determination of solubility was considered attained when samples from two consecutive time points varied by less than 5%. The solubilities were determined in triplicate.
as §1

[6] = parameters: method as in PMID 7616366; settings: dogs, n = 4, mean ± SEM; cited from earlier work

Structure (SMILES) | Cinnarizine solubility in oleic acid (previous study) ([1]; in oleic acid, 25 °C) | Solubility of cinnarizine in water at low pH ([1]; pH 1.3) | Log P [2] | pKa [3] | Precipitation of cinnarizine during colloidal dispersion [4] | solubility ([5]; 100 mM TRIS maleate buffer pH 6.5, 37 °C, n = 3, read-out: Aqueous solubility (37 °C)) | Cinnarizine solubility in SNEDDS I ([5]; in SNEDDS I preconcentrate, 25 °C, mean ± SD (n = 3)) | Cinnarizine solubility in SNEDDS II ([5]; in SNEDDS II preconcentrate, 25 °C, mean ± SD (n = 3)) | Cinnarizine solubility in SNEDDS III ([5]; in SNEDDS III preconcentrate, 25 °C, mean ± SD (n = 3)) | Cinnarizine solubility in SNEDDS IV ([5]; in SNEDDS IV preconcentrate, 25 °C, mean ± SD (n = 3)) | Cinnarizine solubility in oleic acid ([5]; in oleic acid, 37 °C, mean ± SD (n = 3)) | Cinnarizine solubility in sesame oil ([5]; in sesame oil, 37 °C, mean ± SD (n = 3)) | Bioavailability from a conventional capsule [6] | Bioavailability from an aqueous suspension formulation [6] | pKa in water ([3]; in water) | apparent pKa in mixed bile acid/phospholipid micelles ([3]; incorporated into mixed bile acid/phospholipid micelles)
C(=C\c1ccccc1)/CN1CCN(C(c2ccccc2)c2ccccc2)CC1 [Cinnarizine, cinnarizine] | 237 mg/g | 853 µg/mL | 5.77 [16] | 1.95 [18] | not observed | 0.39 ± 0.1 µg/mL (≈ 1.06 µM) | 67.4 ± 0.9 mg/g | 58.8 ± 0.5 mg/g | 36.4 ± 0.7 mg/g | 28.3 ± 0.8 mg/g | 335 ± 3 mg/g | 25.7 ± 0.4 mg/g | 0.8% ± 0.4% | 8% ± 4% | – | –
CCCCCCCC/C=C\CCCCCCCC(=O)O [oleic acid] | – | – | – | – | – | – | – | – | – | – | – | – | – | – | 9.85 | 6.5
